Reference: PMC13672995, “NCR13 peptide protects soybean against Cercospora sojina using multi-faceted modes of action and additive interaction with chemical fungicides” (Journal of Experimental Botany, 2025)
In brackets after ≈: the same amount, converted by molar mass. Like-named read-outs stand apart in the source and are kept apart here. Where a SMILES comes first, the peptide text is derived from it. Where no end group is shown, it is not given here.

Tests used:
[1] = system: C. sojina Cs350 on soybean cv. Blackhawk (FLS); experiment: In planta post-inoculation assay of NCR13_PFV1 and azoxystrobin combinations; type: in vivo, Cercospora sojina; conditions: azoxystrobin alone sprayed at 3 µM and 6 µM
Procedure: To further test additive/synergistic interaction between NCR13_PFV1 and azoxystrobin against the fungicide-resistant isolate Cs350, in planta assays were performed. These assays were similar to the post-inoculation in planta assays as mentioned above. Briefly, second or third trifoliate leaves of soybean were first sprayed with 1 ml of Cs350 conidial suspension (1×10^5 ml^−1) followed by spray application with 1 ml of NCR13_PFV1 (24 µM) or azoxystrobin (3 µM or 6 µM) or their combination (24 µM NCR13_PFV1 plus 3 µM azoxystrobin or 24 µM NCR13_PFV1 plus 6 µM azoxystrobin) or water after 2 h of pathogen inoculation. Plants were incubated in the growth chamber, and disease scoring was done as described above.

[2] = system: C. sojina Cs350 (fungicide resistant); experiment: Peptide-fungicide checkerboard assay; type: cell-based, Cercospora sojina; conditions: for interaction with NCR13_PFV1 by FIC index: Cs350, in vitro; for MIC: read-out: Individual MIC
Procedure: (§1) Synergy between NCR13_PFV1 and the widely used QoI foliar fungicides, azoxystrobin (Sigma-Aldrich, Cat No: 31697), trifloxystrobin (Sigma-Aldrich, Cat No: 46447), and pyraclostrobin (Sigma-Aldrich, Cat No: 33696), were evaluated using checkerboard assays. This assay was performed in a 96-well plate and the preparation of conidial suspension, peptide dilutions, and fungicide dilutions were similar to the in vitro antifungal activity assay described above. The presence of an alternative respiration pathway allows some fungi including C. sojina to germinate even in the presence of a high dose of QoI fungicides in vitro ([Ziogas et al., 1997]; [Zhang et al., 2012]). Therefore, to prevent alternative respiration in C. sojina, salicylhydroxamic acid (SHAM) was added in each reaction at the final concentration of 60 µg ml^–1 ([Zhang et al., 2012]). The conidia, peptide, fungicide, and SHAM were added in a 96-well plate at the v/v ratio of 4:1:1:2 (50 µl:12.5 µl:12.5 µl:25 µl) in the final reaction volume of 100 µl, and the plate was incubated at room temperature for 96 h (4 d). After 96 h, MIC values of the peptide–fungicide combination, peptide alone, and fungicide alone were calculated based on microscopy as well as the resazurin cell viability assay. The fractional inhibitory concentration (FIC) index was calculated using the formula FIC = (MICA+B/MICA) + (MICB+A/MICB), where MICA and MICB are the MIC for peptide (A) alone and fungicide (B) alone, respectively, MICA+B is the MIC for peptide in combination with fungicide (A+B), and MICB+A is the MIC for fungicide in combination with peptide (B+A). The FIC index was interpreted as: synergistic, ≤0.5; additive, >0.5–1.0; indifferent, >1 to <4.0; or antagonistic, ≥4.0.

[3] = system: C. sojina Cs320 (fungicide sensitive); experiment: Peptide-fungicide checkerboard assay; type: cell-based, Cercospora sojina; conditions: Cs320, in vitro, 96 h
Procedure: as §1

[4] = system: C. sojina Cs350 conidia and germlings; experiment: Plasma membrane permeabilization assay (SYTOX Green); type: cell-based, Cercospora sojina; conditions: Cs350; 0.5 µM SG; confocal microscopy
Procedure: Membrane permeabilization of C. sojina Cs350 by NCR13_PFV1 and azoxystrobin was analyzed by visualizing the influx of SYTOX Green (SG) (Thermo Scientific) using time-lapse confocal microscopy. Germlings grown for 6–8 h or conidia of C. sojina were mixed with various concentrations of NCR13_PFV1, azoxystrobin, or both and 0.5 µM SG and were observed under confocal microscopy at an excitation wavelength of 500 nm and an emission wavelength ranging from 510 nm to 600 nm at specific time intervals. A z-stack at each time point was acquired using a ×63 water immersion objective lens (HC PL Apochromat CS2).

[5] = system: C. sojina QoI fungicide-sensitive isolate Cs320; experiment: microbe, parasite or virus in culture; type: cell-based, Cercospora sojina; conditions: for MIC (µM) against Fungicide sensitive C. sojina isolate (Cs320): QoI fungicides, determined in 2 days, 0.02 µM lowest concentration tested; for MIC (μM) against C. sojina isolates, Fungicide sensitive, Cs320 / MIC: 48 h; for MIC: Cercospora sojina, read-out: MIC (µM) against Fungicide sensitive C. sojina isolate (Cs320)
Procedure: (§2) In vitro antifungal activity of AFPs and QoI fungicides was determined using 96-well plate assays as described ([Velivelli et al., 2020]) with slight modifications. Briefly, 2- to 3-week-old C. sojina was used to make a conidial suspension in 2× SFM at the final concentration of ∼10^5 conidia ml^−1. Simultaneously, peptide dilutions (in water) at various concentrations were made. Fungicides were dissolved in 50% acetone and 50% water to make a stock solution of 500 µM, and serial dilutions were made in water as needed. The peptide–conidia or the fungicide–conidia mixture at the ratio of 1:1 (45 µl:45 µl) was added in a 96-well plate and incubated at room temperature for 48 h, after which MICs of the peptides/fungicides were calculated based on microscopy as well as the resazurin cell viability assay ([Velivelli et al., 2020]).

[6] = system: azoxystrobin-resistant C. sojina Cs350 conidia; experiment: Cell death detection assay (propidium iodide, confocal microscopy); type: cell-based, Cercospora sojina; conditions: azoxystrobin 48 μM alone; within 1 h; PI staining; n=3
Procedure: The fungicidal activity of azoxystrobin and peptide NCR13_PFV1 in azoxystrobin-resistant C. sojina Cs350 was analyzed by visualizing the influx of a cell death indicator dye propidium iodide (PI) using time-lapse confocal microscopy. The C. sojina conidia were treated with various concentrations of azoxystrobin, NCR13_PFV1, azoxystrobin plus NCR13_PFV1, or water and 0.5 μg ml^–1 PI, and were observed under confocal microscopy at an excitation and emission wavelength of 500 nm and 545–690 nm, respectively. Z-stacks at each time point were acquired using a ×63 water immersion objective lens (HC PL Apochromat CS2). For each sample, the number of live and dead cells after 1 h of peptide, fungicide, or combination treatment was determined.

[7] = system: C. sojina QoI fungicide-resistant isolate Cs350; type: cell-based, Cercospora sojina; conditions: for MIC (μM) against C. sojina, Fungicide resistant, Cs350: 48 h; for fold increase of MIC with increasing iron concentration: FeSO4 in SFM
Procedure: as §2

[8] = Peroxidase assay (TMB substrate); type: biochemical; conditions: heme 5 µM, peptide 5 µM, absorption at 370 nm and 652 nm
Procedure: A Pierce TMB substrate kit (Thermo Scientific) was used to measure the peroxidase activity of heme. In a transparent 96-well plate, 50 µl of TMB substrate and 50 µl of […] were added followed by addition of heme (5 µM) or peptides plus heme (5 µM each). The reaction progression was measured in the Tecan plate reader, by recording UV-vis absorption values at 370 nm and 652 nm for every minute up to 1 h.

[9] = Heme-peptide binding assay (colour change); conditions: equimolar heme and peptide, 100 µM, 1 h, room temperature
Procedure: Heme solutions were freshly prepared by dissolving hemin chloride (Sigma Cat No: 3741) in 0.1 M NaOH and used within an hour after preparation. Two heme-sequestering peptides, NCR247 and NCR455 ([Montiel et al., 2017]; [Sankari et al., 2022]), were used as positive controls, and water-only treatment as a negative control. The equimolar concentration of heme and peptide (100 µM) or water were mixed and incubated at room temperature for 1 h. When dissolved in NaOH, heme is light to dark brown in color; however, when it binds to a peptide, the color changes to reddish-brown as described by [Sankari et al. (2022)]. The change in color of heme to reddish-brown indicated the heme binding ability of the peptide.

[10] = system: fungicide-sensitive and -resistant isolates of C. sojina; experiment: In vitro antifungal activity assay (MIC stated across isolates); type: cell-based, Cercospora sojina
Procedure: as §2

[11] = SFM, ~10^5 conidia ml−1, room temperature, resazurin cell viability assay and microscopy

CO/C=C(/C(=O)OC)c1ccccc1Oc1cc(Oc2ccccc2C#N)ncn1 [Azoxystrobin, azoxystrobin]
FLS symptoms in planta [1]: able to reduce FLS symptoms in planta | interaction with NCR13_PFV1 by FIC index ([2]; 96 h): additive (additive, >0.5–1.0) | FIC score ([2]; pair azoxystrobin / NCR13_PFV1, Cs350, 4 d): ≤ 1 | Combination MIC ([2]; pair azoxystrobin / NCR13_PFV1, Cs350, 4 d, SHAM 60 µg ml–1, microscopy): 48 µM | MIC ([2]; pair azoxystrobin / NCR13_PFV1, Cs350, 4 d, SHAM 60 µg ml–1, microscopy, highest fungicide concentration 48 µM): > 48 µM | interaction with NCR13_PFV1 by FIC index [3]: additive (additive, >0.5–1.0) | plasma membrane permeabilization (SYTOX Green uptake) [4]: did not permeabilize the plasma membrane | MIC (µM) against Fungicide sensitive C. sojina isolate (Cs320) [5]: 0.09 to 0.18 µM | cell death [6]: 11%

CC(C)C[C@H](NC(=O)[C@H](CS)NC(=O)[C@H](C)NC(=O)CN)C(=O)N[C@@H](CCCCN)C(=O)N[C@@H](CC(N)=O)C(=O)N[C@@H](CCCNC(=N)N)C(=O)N[C@@H](Cc1c[nH]cn1)C(=O)N[C@@H](CO)C(=O)N[C@@H](CCCCN)C(=O)N[C@@H](Cc1c[nH]cn1)C(=O)N[C@@H](Cc1ccc(O)cc1)C(=O)NCC(=O)N[C@@H](Cc1c[nH]c2ccccc12)C(=O)N[C@@H](Cc1ccccc1)C(=O)N[C@@H](Cc1c[nH]c2ccccc12)C(=O)N[C@@H](Cc1ccc(O)cc1)C(=O)N[C@@H](Cc1ccc(O)cc1)C(=O)N[C@@H](CCCNC(=N)N)C(=O)N[C@@H](Cc1c[nH]cn1)C(=O)N[C@@H](CS)C(=O)N[C@@H](Cc1ccc(O)cc1)C(=O)O [GMAOe1C_V1] (H-GACLKNRHSKHYGWFWYYRHCY-OH; N-terminus and C-terminus assumed)
MIC (μM) against C. sojina, Fungicide resistant, Cs350 [7]: 3 to 6 µM

CC(C)[C@H](NC(=O)[C@H](CCCCN)NC(=O)[C@@H]1CCCN1C(=O)[C@H](CCCCN)NC(=O)[C@H](CCCNC(=N)N)NC(=O)[C@H](CS)NC(=O)[C@H](C)NC(=O)[C@H](Cc1ccccc1)NC(=O)[C@H](CCCCN)NC(=O)[C@@H](N)CCCCN)C(=O)N1CCC[C@H]1C(=O)N[C@@H](CCCCN)C(=O)N[C@@H](CS)C(=O)O [NCR13_V7] (H-KKFACRKPKVPKC-OH; N-terminus and C-terminus assumed)
MIC (μM) against C. sojina, Fungicide resistant, Cs350 [7]: 12 µM (≈ 18.4 µg/mL) | fold increase of MIC with increasing iron concentration [7]: 2 fold | MIC (μM) against C. sojina isolates, Fungicide sensitive, Cs320 [5]: 6 µM (≈ 9.2 µg/mL)

N=C(N)NCCC[C@H](NC(=O)[C@H](CS)NC(=O)[C@H](Cc1c[nH]c2ccccc12)NC(=O)[C@H](Cc1ccccc1)NC(=O)[C@H](CCCCN)NC(=O)[C@@H](N)CCCCN)C(=O)N[C@@H](CCCCN)C(=O)N1CCC[C@H]1C(=O)N[C@@H](CCCCN)C(=O)N[C@@H](Cc1c[nH]c2ccccc12)C(=O)N1CCC[C@H]1C(=O)N[C@@H](CCCCN)C(=O)N[C@@H](CS)C(=O)O [NCR13_V9] (H-KKFWCRKPKWPKC-OH; N-terminus and C-terminus assumed)
MIC (μM) against C. sojina, Fungicide resistant, Cs350 [7]: 6 µM (≈ 10.4 µg/mL) | fold increase of MIC with increasing iron concentration [7]: 2 fold | MIC (μM) against C. sojina isolates, Fungicide sensitive, Cs320 [5]: 3 µM (≈ 5.21 µg/mL)

COC(=O)N(OC)c1ccccc1COc1ccn(-c2ccc(Cl)cc2)n1 [Pyraclostrobin, pyraclostrobin]
MIC ([2]; Cercospora sojina, 96 h, pair pyraclostrobin / NCR13_PFV1, Cs350, 4 d, SHAM 60 µg ml–1, microscopy): 24 µM | interaction with NCR13_PFV1 by FIC index ([2]; 96 h): additive (additive, >0.5–1.0) | FIC score ([2]; pair pyraclostrobin / NCR13_PFV1, Cs350, 4 d): ≤ 1 | MIC [5]: < 0.02 µM | MIC (µM) against Fungicide sensitive C. sojina isolate (Cs320) [5]: <0.02 µM

CON=C(C(=O)OC)c1ccccc1CON=C(C)c1cccc(C(F)(F)F)c1 [Trifloxystrobin, trifloxystrobin]
MIC ([2]; Cercospora sojina, 96 h, pair trifloxystrobin / NCR13_PFV1, Cs350, 4 d, SHAM 60 µg ml–1, microscopy, highest fungicide concentration 48 µM): > 48 µM | interaction with NCR13_PFV1 by FIC index ([2]; 96 h): additive (additive, >0.5–1.0) | FIC score ([2]; pair trifloxystrobin / NCR13_PFV1, Cs350, 4 d): ≤ 1 | MIC [5]: < 0.02 µM | MIC (µM) against Fungicide sensitive C. sojina isolate (Cs320) [5]: <0.02 µM

RNGCIVDARCPYQKCSYPLYCRRR [NCR455, reference compound]
peroxidase activity of heme and FeSO4 in the presence of peptide [8]: reduced or stopped | heme binding (colour change of heme from brown to reddish-brown) [9]: visible color change of heme from brown to reddish-brown

RNGCIVDPRCPYQQCRRPLYCRRR [NCR247, reference compound]
peroxidase activity of heme and FeSO4 in the presence of peptide [8]: reduced or stopped | heme binding (colour change of heme from brown to reddish-brown) [9]: visible color change of heme from brown to reddish-brown

TKPCQSDKDCKKFACRKPKVPKCINGFCKCVR (disulfide (positions not given here)) [NCR13_PFV2]
fold increase of MIC with increasing iron concentration [7]: 2 fold | MIC (μM) against C. sojina, Fungicide resistant, Cs350 [7, 11]: 3 µM | peroxidase activity of heme and FeSO4 in the presence of peptide [8]: not reduced or stopped | fold less potent than NCR13_PFV1 ([10]; from MIC against C. sojina): 2 fold | MIC against fungicide-sensitive and -resistant isolates of C. sojina ([10]; range over Cs320 and Cs350, 48 h): 1.5 to 3 µM | heme binding (colour change of heme from brown to reddish-brown) [9]: no such color change | MIC (μM) against C. sojina isolates, Fungicide sensitive, Cs320 [5, 11]: 1.5 µM
